Measurements from US8906925B2, “Pyrido[4,3-B]indoles containing rigid moieties” (Medivation Technologies, Inc., priority 2008, dated 2014).
Where two headings read alike, the source gives them in different places.

Columns and labels:
histamine receptor H1 = histamine receptor H1 (Homo sapiens, UniProt P35367); test: Histamine H1 radioligand binding ([3H]Pyrilamine); conditions: read-out: Histamine Binding (1 μM) H1, percent inhibition of specific binding, 1 μM
Experimental: To evaluate in radioligand binding assays the activity of compounds of the invention, human recombinant histamine H1 receptor expressed in Chinese hamster ovary (CHO) cells (De Backer, M. D. et al., Biochem. Biophys. Res. Comm. 197(3):1601, 1993) in a modified Tris-HCl buffer (50 mM Tris-HCl, pH 7.4, 2 mM MgCl2, 100 mM NaCl, 250 mM Sucrose) was used. Compounds of the invention were incubated with 1.2 nM [^3H]Pyrilamine for 180 min. at 25° C. Non-specific binding was estimated in the presence of 1 μM pyrilamine. Receptor proteins were filtered and washed, the filters were then counted to determine [^3H]Pyrilamine specifically bound. Compounds were screened at 1 μM or lower, using 1% DMSO as vehicle. Biochemical assay results are presented as the percent inhibition of specific binding in Table 8.

[1] = target: human dopamine D2L receptor (Homo sapiens, UniProt P14416); test: Dopamine D2L radioligand binding ([3H]Spiperone); conditions: compound at 1 μM
Text: Non-specific binding was estimated in the presence of […] Haloperidol. Receptor proteins were filtered and washed, the filters were then counted to determine [^3H]Spiperone specifically bound. […] Biochemical assay results are presented as the percent inhibition of specific binding in Table 9.

[2] = […] [3H]Spiperone, read-out: Inhibition of ligand binding, Dopamine D2L (percent inhibition of specific binding)
[3] = percent inhibition of specific binding, read-out: Inhibition of ligand binding, Dopamine D2L

Chain of human dopamine D2L receptor (P14416 whole entry): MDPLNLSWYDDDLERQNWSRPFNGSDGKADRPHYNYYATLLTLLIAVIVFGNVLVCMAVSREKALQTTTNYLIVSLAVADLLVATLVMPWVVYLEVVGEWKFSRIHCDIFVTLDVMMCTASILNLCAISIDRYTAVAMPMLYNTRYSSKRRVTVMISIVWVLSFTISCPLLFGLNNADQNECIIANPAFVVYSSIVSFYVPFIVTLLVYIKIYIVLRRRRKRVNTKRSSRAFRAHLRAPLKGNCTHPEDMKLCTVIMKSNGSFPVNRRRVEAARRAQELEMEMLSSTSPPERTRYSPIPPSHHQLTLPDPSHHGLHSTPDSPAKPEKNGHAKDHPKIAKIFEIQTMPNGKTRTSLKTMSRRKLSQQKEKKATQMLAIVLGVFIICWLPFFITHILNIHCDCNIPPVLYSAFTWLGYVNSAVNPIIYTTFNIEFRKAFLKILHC
Chain of histamine receptor H1 (P35367 whole entry): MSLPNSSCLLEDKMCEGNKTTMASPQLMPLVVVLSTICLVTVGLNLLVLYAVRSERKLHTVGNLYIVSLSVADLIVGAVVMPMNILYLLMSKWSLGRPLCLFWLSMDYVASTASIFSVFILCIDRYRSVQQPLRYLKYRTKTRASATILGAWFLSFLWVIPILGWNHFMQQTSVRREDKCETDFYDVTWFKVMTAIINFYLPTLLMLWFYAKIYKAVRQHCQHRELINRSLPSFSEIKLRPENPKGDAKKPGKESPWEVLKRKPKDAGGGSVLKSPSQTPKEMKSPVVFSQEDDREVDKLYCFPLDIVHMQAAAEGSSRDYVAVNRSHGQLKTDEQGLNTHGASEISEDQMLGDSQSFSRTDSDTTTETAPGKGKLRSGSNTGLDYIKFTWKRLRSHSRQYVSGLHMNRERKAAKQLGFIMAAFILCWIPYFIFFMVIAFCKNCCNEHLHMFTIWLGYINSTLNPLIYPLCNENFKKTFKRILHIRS

CC(=O)N(C)c1ccc2c(c1)c1c(n2/C=C(\C)c2ccc(F)cc2)CCN(C)C1 [compound 443, (E)-N-(5-(2-(4-fluorophenyl)prop-1-enyl)-2-methyl-2,3,4,5-tetrahydro-1H-pyrido[4,3-b]indol-8-yl)-N-methylacetamide]
inhibition at 1 µM (histamine receptor H1): -5%
inhibition at 1 µM [1, 2]: 92%

C/C(=C\n1c2c(c3cc(N4CCCCC4)ccc31)CN(C)CC2)c1ccncc1 [compound 445, (E)-2-methyl-8-(piperidin-1-yl)-5-(2-(pyridin-4-yl)prop-1-enyl)-2,3,4,5-tetrahydro-1H-pyrido[4,3-b]indole]
inhibition at 1 µM (histamine receptor H1): 1%
inhibition at 1 µM [1, 2]: 20%

C/C(=C\n1c2c(c3cc(C)ccc31)CN(CCc1ccccc1)CC2)c1ccncc1 [compound 412, (E)-8-methyl-2-phenethyl-5-(2-(pyridin-4-yl)prop-1-enyl)-2,3,4,5-tetrahydro-1H-pyrido[4,3-b]indole]
inhibition at 1 µM (histamine receptor H1): 27%
inhibition at 1 µM [1, 2]: 94%

CNc1ccc2c(c1)c1c(n2/C=C(\C)c2ccc(F)cc2)CCN(C)C1 [compound 431, (E)-5-(2-(4-fluorophenyl)prop-1-enyl)-N,2-dimethyl-2,3,4,5-tetrahydro-1H-pyrido[4,3-b]indol-8-amine]
inhibition at 1 µM (histamine receptor H1): 33%
inhibition at 1 µM [1, 2]: 80%

Cc1ccc2c(c1)c1c(n2C#Cc2cccc(N(C)C)c2)CCN(C)C1 [Compound No. 489, 3-((2,8-dimethyl-3,4-dihydro-1H-pyrido[4,3-b]indol-5(2H)-vyl)ethynyl)-N,N-dimethylaniline]
inhibition at 1 µM (histamine receptor H1): 13%
inhibition at 1 µM [1, 2]: 9%

C/C(=C\n1c2c(c3cc(C)ccc31)CN(C)CC2)c1cnccn1 [Compound 287, (E)-2,8-dimethyl-5-(2-(pyrazin-2-yl)prop-1-enyl)-2,3,4,5-tetrahydro-1H-pyrido[4,3-b]indole]
inhibition at 1 µM (histamine receptor H1): 33%
inhibition at 1 µM [1, 3]: 72%

Cc1ccc2c(c1)c1c(n2/C=C(\c2ccccc2)c2ccncc2)CCN(C)C1 [compound 455, (E)-2,8-dimethyl-5-(2-phenyl-2-(pyridin-4-yl)vinyl)-2,3,4,5-tetrahydro-1H-pyrido[4,3-b]indole]
inhibition at 1 µM (histamine receptor H1): 13%
inhibition at 1 µM [1, 2]: 56%

C/C(=C\n1c2c(c3cc(C)ccc31)CN(CCO)CC2)c1ccncc1 [Compound 332, (E)-2-(8-methyl-5-(2-(pyridin-4-yl)prop-1-enyl)-3,4-dihydro-1H-pyrido[4,3-b]indol-2(5H)-yl)ethanol]
inhibition at 1 µM (histamine receptor H1): 23%
inhibition at 1 µM [1, 3]: 79%

CC(C)c1ccc2c3c(n(CC(C)(O)c4ccncc4)c2c1)CCN(C)C3 (stereo not drawn) [Compound 344, 1-(7-isopropyl-2-methyl-3,4-dihydro-1H-pyrido[4,3-b]indol-5(2H)-yl)-2-(pyridin-4-yl)propan-2-ol]
inhibition at 1 µM (histamine receptor H1): 7%
inhibition at 1 µM [1, 3]: 10%

COCCCN1CCc2c(c3cc(C)ccc3n2/C=C(\C)c2ccncc2)C1 [compound 400, (E)-2-(3-methoxypropyl)-8-methyl-5-(2-(pyridin-4-yl)prop-1-enyl)-2,3,4,5-tetrahydro-1H-pyrido[4,3-b]indole]
inhibition at 1 µM (histamine receptor H1): 22%
inhibition at 1 µM [1, 2]: 94%

CC/C(=C\n1c2c(c3cc(Cl)ccc31)CN(C)CC2)c1ccncc1 [Compound 284, (E)-8-chloro-2-methyl-5-(2-(pyridin-4-yl)but-1-enyl)-2,3,4,5-tetrahydro-1H-pyrido[4,3-b]indole]
inhibition at 1 µM (histamine receptor H1): 40%
inhibition at 1 µM [1, 3]: 84%

CSc1ccc(/C(C)=C/n2c3c(c4cc(C)ccc42)CN(C)CC3)cc1 [Compound No. 459, (E)-2,8-dimethyl-5-(2-(4-(methylthio)phenyl)prop-1-enyl)-2,3,4,5-tetrahydro-1H-pyrido[4,3-b]indole]
inhibition at 1 µM (histamine receptor H1): 53%
inhibition at 1 µM [1, 2]: 71%

CNC(=O)c1cccc(/C(C)=C/n2c3c(c4cc(C)ccc42)CN(C)CC3)c1 [Compound No. 472, (E)-3-(1-(2,8-dimethyl-3,4-dihydro-1H-pyrido[4,3-b]indol-5(2H)-yl)prop-1-en-2-yl)-N-methylbenzamide]
inhibition at 1 µM (histamine receptor H1): 21%
inhibition at 1 µM [1, 2]: 53%

CC(=O)N(C)c1ccc2c(c1)c1c(n2/C=C(\C)c2ccncc2)CCN(C)C1 [compound 439, (E)-N-methyl-N-(2-methyl-5-(2-(pyridin-4-yl)prop-1-enyl)-2,3,4,5-tetrahydro-1H-pyrido[4,3-b]indol-8-yl)acetamide]
inhibition at 1 µM (histamine receptor H1): 9%
inhibition at 1 µM [1, 2]: 16%

C/C(=C\n1c2c(c3cc(C)ccc31)CN(CCCO)CC2)c1ccncc1 [Compound 288, (E)-3-(8-methyl-5-(2-(pyridin-4-yl)prop-1-enyl)-3,4-dihydro-1H-pyrido[4,3-b]indol-2(5H)-yl)propan-1-ol]
inhibition at 1 µM (histamine receptor H1): 25%
inhibition at 1 µM [1, 3]: 92%

C/C(=C\n1c2c(c3cc(Cl)ccc31)CN(C)CC2)c1ccnc(C)c1 [compound 394, (E)-8-chloro-2-methyl-5-(2-(2-methylpyridin-4-yl)prop-1-enyl)-2,3,4,5-tetrahydro-1H-pyrido[4,3-b]indole]
inhibition at 1 µM (histamine receptor H1): 75%
inhibition at 1 µM [1, 2]: 99%

C/C(=C\n1c2c(c3cc(Cl)ccc31)CN(C)CC2)c1ccncn1 [Compound 289, (E)-8-chloro-2-methyl-5-(2-(pyrimidin-4-yl)prop-1-enyl)-2,3,4,5-tetrahydro-1H-pyrido[4,3-b]indole]
inhibition at 1 µM (histamine receptor H1): 34%
inhibition at 1 µM [1, 3]: 90%

CNc1ccc2c(c1)c1c(n2/C=C(\C)c2ccncc2)CCN(C)C1 [compound 433, (E)-N,2-dimethyl-5-(2-(pyridin-4-yl)prop-1-enyl)-2,3,4,5-tetrahydro-1H-pyrido[4,3-b]indol-8-amine]
inhibition at 1 µM (histamine receptor H1): 13%
inhibition at 1 µM [1, 2]: 61%

C/C(=C\n1c2c(c3cc(C)ccc31)CN(C)CC2)C1CCCCC1 [Compound 320, (E)-5-(2-cyclohexylprop-1-enyl)-2,8-dimethyl-2,3,4,5-tetrahydro-1H-pyrido[4,3-b]indole]
inhibition at 1 µM (histamine receptor H1): 65%
inhibition at 1 µM [1, 3]: 61%

CNC(=O)c1ccc(/C(F)=C(/c2ccc(C(=O)NC)c(F)c2)n2c3c(c4cc(C)ccc42)CN(C)CC3)cc1F [compound 423, (E)-4,4′-(1-(2,8-dimethyl-3,4-dihydro-1H-pyrido[4,3-b]indol-5(2H)-yl)-2-fluoroethene-1,2-diyl)bis(2-fluoro-N-methylbenzamide)]
inhibition at 1 µM (histamine receptor H1): 31%
inhibition at 1 µM [1, 2]: -10%

CC(C)=C(Cn1c2c(c3cc(Cl)ccc31)CN(C)CC2)c1ccncc1 [Compound No. 357, 8-chloro-2-methyl-5-(3-methyl-2-(pyridin-4-yl)but-2-enyl)-2,3,4,5-tetrahydro-1H-pyrido[4,3-b]indole]
inhibition at 1 µM (histamine receptor H1): 61%
inhibition at 1 µM [1, 2]: 14%

C/C(=C\n1c2c(c3ccc(C(C)C)cc31)CN(C)CC2)c1ccncc1 [Compound 334, (E)-7-isopropyl-2-methyl-5-(2-(pyridin-4-yl)prop-1-enyl)-2,3,4,5-tetrahydro-1H-pyrido[4,3-b]indole]
inhibition at 1 µM (histamine receptor H1): 18%
inhibition at 1 µM [1, 3]: 90%

C/C(=C\n1c2c(c3cc(Cl)ccc31)CNCC2)c1ccncc1 [compound 402, (E)-8-chloro-5-(2-(pyridin-4-yl)prop-1-enyl)-2,3,4,5-tetrahydro-1H-pyrido[4,3-b]indole]
inhibition at 1 µM (histamine receptor H1): 15%
inhibition at 1 µM [1, 2]: 87%

C/C(=C\n1c2c(c3cc(Cl)ccc31)CN(C)[C@@H](C)C2)c1ccncc1 [compound 391, (S,E)-8-chloro-2,3-dimethyl-5-(2-(pyridin-4-yl)prop-1-enyl)-2,3,4,5-tetrahydro-1H-pyrido[4,3-b]indole]
inhibition at 1 µM (histamine receptor H1): 84%
inhibition at 1 µM [1, 2]: 72%

C=CCN1CCc2c(c3cc(Cl)ccc3n2/C=C(\C)c2ccncc2)C1 [compound 406, (E)-2-allyl-8-chloro-5-(2-(pyridin-4-yl)prop-1-enyl)-2,3,4,5-tetrahydro-1H-pyrido[4,3-b]indole]
inhibition at 1 µM (histamine receptor H1): 74%
inhibition at 1 µM [1, 2]: 96%

C/C(=C\n1c2c(c3cc(C)ccc31)CN(C)CC2)c1ccc(S(C)(=O)=O)cc1 [Compound No. 462, (E)-2,8-dimethyl-5-(2-(4-(methylsulfonyl)phenyl)prop-1-enyl)-2,3,4,5-tetrahydro-1H-pyrido[4,3-b]indole]
inhibition at 1 µM (histamine receptor H1): 32%
inhibition at 1 µM [1, 2]: 76%

CO/C(=C(/C)n1c2c(c3cc(C)ccc31)CN(C)CC2)c1ccncc1 [compound 418, (Z)-5-(1-methoxy-1-(pyridin-4-yl)prop-1-en-2-yl)-2,8-dimethyl-2,3,4,5-tetrahydro-1H-pyrido[4,3-b]indole]
inhibition at 1 µM (histamine receptor H1): 33%
inhibition at 1 µM [1, 2]: 14%

C=C(Cn1c2c(c3cc(Cl)ccc31)CN(C)C(C)C2)c1ccncc1 (stereo not drawn) [Compound 365, 8-chloro-2,3-dimethyl-5-(2-(pyridin-4-yl)allyl)-2,3,4,5-tetrahydro-1H-pyrido[4,3-b]indole]
inhibition at 1 µM (histamine receptor H1): 92%
inhibition at 1 µM [1, 2]: 49%

CC(C)=C(Cn1c2c(c3cc(C)ccc31)CN(C)CC2)c1ccncc1 [Compound No. 358, 2,8-dimethyl-5-(3-methyl-2-(pyridin-4-yl)but-2-enyl)-2,3,4,5-tetrahydro-1H-pyrido[4,3-b]indole]
inhibition at 1 µM (histamine receptor H1): 47%
inhibition at 1 µM [1, 2]: 14%

Cc1ccc2c(c1)c1c(n2C(C)(C)C(O)c2ccccc2)CCN(C)C1 (stereo not drawn) [Compound No. 467, 2-(2,8-dimethyl-3,4-dihydro-1H-pyrido[4,3-b]indol-5(2H)-yl)-2-methyl-1-phenylpropan-1-ol]
inhibition at 1 µM (histamine receptor H1): 54%
inhibition at 1 µM [1, 2]: 7%
